Assays:
AQP 4 [1] = biological target: T1, AQP 4 (Mus musculus, UniProt P55088); assay: AQP 4 function promotion verification test using Alzheimer's disease model mice (H2 17O dynamics in brain by MRI); format: in vivo; conditions: 5×FAD Alzheimer's disease model mice, 50 mg/kg orally for 3 months, MRI (FIG. 3)
T1 construct: from tissue; host or cells: brain of living B6SJL mice
Experimental: (§1) 5×FAD Alzheimer's disease model mice were bred until 4 months old. Next, the compound 1A (50 mg/kg) or the compound 2A (200 mg/kg) prepared in Production Example 1 were orally administered to the mice for 3 months. Further, a non-administration group was also prepared as the control.
With respect to the group of mice to which the compound 1A was administered and the non-administration group, images showing the dynamics of H2^17O in the brain of each mouse (cortex and CSF) at 8 second intervals were recorded until 70 seconds after the administration using MRI according to the same method as in Test Example 1. In FIG. 3, “Vehicle” indicates a non-administration group and “Compound 1A” indicates a compound 1A administration group. Further, relative values (CSF/Cortex) with respect to the cortex are also shown.

senile plaques (Aβ) = assay: Immunostaining of brain slices and quantification of senile plaques in Alzheimer's disease model mice; format: in vivo, mouse; conditions: 5×FAD mice; for increase in senile plaques formed of Aβ 42: oral administration for 3 months (compound 1A 50 mg/kg, compound 2A 200 mg/kg), cerebral cortex (FIGS. 4A, 4B)
Experimental: as §1
Subsequently, the brain was extracted from each mouse, paraffin-embedded slices (respectively with a thickness of 4 μm) were prepared using brain tissues, and immunohistochemical staining was performed according to the following method.
First, the slices were subjected to a formic acid treatment, and overnight incubation was performed at 4° C. using Mouse monoclonal Anti-Human Amyloid J3 (Total Aj3) (10027, IBL, Japan), [2] Rabbit polyclonal Anti-Human Amyloid J31-40 (AJ340) (18580, IBL, Japan), or [3] Rabbit polyclonal Anti-Human Amyloid J31-42 (AJ342) (18582, IBL, Japan) as primary antibodies. Further, the dilution ratios of antibodies were respectively [1]×50, [2]×200, and [3]×200. After the secondary antibodies were applied, the antibodies were visualized according to a polymer method using Histofine DAB substrate kit (NICHIREI CORPORATION, JAPAN).
Next, the tissue images of the stained samples were imaged using a bright field optical microscope (Olympus Corporation, BX53, DP73), and the images were stored according to the TIFF format (2400×1800 pixels, 3.5×2.6 mm, 2.13 μm^2/pixel). Each image was analyzed in the following manner using a particle analysis function of the image analysis processing software (Aquacosmos, Hamamatsu Photonics K.K., Japan). ROI was set as the cerebral cortex, particles were extracted according to a binarization method, and the area (the number of pixels) of each extracted particle was automatically calculated and output. In output particle data, particles with an area of 10 pixels or less were removed as noise and quantified.

[2] = biological target: T2, human AQP 4 (hAQP 4)-M23 isoform (Homo sapiens, UniProt P55087); assay: In vitro assay of oocyte volume under hypotonic condition, Xenopus laevis oocytes expressing AQP 4; format: cell-based; conditions: 20 μM compound, oocytes injected with hAQP 4-M23 mRNA, hypotonic reagent, up to 250 seconds, vs Blank (FIG. 1)
T2 construct: expressed in transfected cells; host or cells: Xenopus laevis oocytes, microinjected with hAQP4-M23 mRNA (pSP35T vector)
T2 sequence (P55087 23-323): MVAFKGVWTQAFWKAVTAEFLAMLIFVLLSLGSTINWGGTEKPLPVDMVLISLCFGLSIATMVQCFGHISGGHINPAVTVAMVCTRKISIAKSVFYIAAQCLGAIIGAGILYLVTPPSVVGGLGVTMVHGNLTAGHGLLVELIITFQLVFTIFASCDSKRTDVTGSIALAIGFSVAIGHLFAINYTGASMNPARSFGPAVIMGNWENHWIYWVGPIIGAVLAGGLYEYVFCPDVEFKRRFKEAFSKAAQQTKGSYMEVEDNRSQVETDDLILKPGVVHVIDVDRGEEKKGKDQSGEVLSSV
Experimental: A Modified Barth's Medium (MBS) was provided to contain NaCl (88 mM), KCl (1 mM), HEPES (10 mM), MgSO4 (0.82 mM), NaHCO3 (2.4 mM), CaCl2 (0.91 mM), Ca(NO3)2 (0.33 mM), and gentamicin (100 mg/L), prepared to have a pH of 7.5, and used within one week after the preparation.
Isolation, preparation, and transfection of the oocytes of a Xenopus laevis were performed using a method described in the reference (Sakimura, et al., FEBS Lett., 272, 73 to 80, 1990.). Specifically, the oocytes were extracted from a female adult of a Xenopus laevis (weight of 150 g) and transferred to an MBS. Next, the oocytes were partially transferred to an isolation buffer solution, and the theca folliculi was manually removed so that the oocytes were exposed. […]
Next, the transferred oocytes were imaged using an SZX 16 microscope (manufactured by Olympus Corporation) connected to a DP 26 digital camera (manufactured by Olympus Corporation). […] A Hypotonic reagent (1000 μL) was added, and an assay initial image (t=3 seconds) and images at 15 second intervals of were recorded up to 250 seconds after the administration. […]
Subsequently, the images were transferred to a personal computer, and the region of each oocyte was evaluated using NIH Image-J. The value of the cross-sectional area of each oocyte in a plurality of equally determined measurement times was converted into a volume assumed to be spherical. […]

AQP 4 [3] = biological target: T1, AQP 4; assay: AQP 4 function promotion verification test using mice (H2 17O dynamics in brain by MRI); format: in vivo; conditions: normal male B6SJL-Tg mice, 8 weeks old, intraperitoneal administration, MRI until 70 seconds (FIG. 2B)
Experimental: Normal male B6SJL-Tg mice obtained from Jackson Laboratory were bred until 8 weeks old. Next, indomethacin as a comparative example, the compound 2A prepared in Production Example 1, and physiological saline as the control were intraperitoneally administered to respectively five mice.
Thereafter, 0.2 mL of typical physiological saline containing 20% H2^17O was administered to the right femoral vein of each mouse through the PE10 tube inserted thereinto using an automatic syringe at 0.04 mL/sec. Next, images showing the dynamics of H2^17O in the brain of each mouse ((cortex) and the cerebrospinal fluid (CSF)) at 8 second intervals were recorded until 70 seconds after the administration using magnetic resonance imaging (MRI). The results are shown in FIG. 2A (administration of indomethacin) and FIG. 2B (administration of compound 2A). FIGS. 2A and 2B show relative values (CSF/Cortex) of CSF with respect to the cortex. In FIGS. 2A and 2B, “Vehicle” indicates a non-administration control group, “Indomethacin” indicates an indomethacin administration group, and “Compound 2A” indicates a compound 2A administration group.

T1 sequence (P55088 whole entry): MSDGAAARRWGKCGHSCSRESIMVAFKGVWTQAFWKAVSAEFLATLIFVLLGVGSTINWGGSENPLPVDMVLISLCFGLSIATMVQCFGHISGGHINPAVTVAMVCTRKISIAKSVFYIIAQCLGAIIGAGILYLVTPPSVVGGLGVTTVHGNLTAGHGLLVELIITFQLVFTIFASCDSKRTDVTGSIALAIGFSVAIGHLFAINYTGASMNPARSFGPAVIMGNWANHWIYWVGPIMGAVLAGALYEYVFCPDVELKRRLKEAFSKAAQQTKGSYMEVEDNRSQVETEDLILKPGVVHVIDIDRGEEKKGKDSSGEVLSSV

Row | Compound | AQP 4 function (H2 17O dynamics, CSF/Cortex) (AQP 4 [1]) | increase in senile plaques (total Aβ, Aβ 40, Aβ 42 staining) (senile plaques (Aβ); 50 mg/kg orally for 3 months, cerebral cortex (FIGS. 5A-7B)) | increase in senile plaques formed of Aβ 42 (senile plaques (Aβ)) | volume of the oocyte [2] | numerical values of CSF/Cortex (H2 17O dynamics; water discharge, flow of cerebrospinal fluid) (AQP 4 [3])
1 | N=C(N)NCCS(=O)(=O)O [compound 1A, 2-guanidino-1-ethanesulfonic acid] | markedly promoted | can be suppressed | can be suppressed |  | 
2 | O=S(=O)(Nc1ncccc1OCc1ccccc1)c1ccccc1 [compound 2A, 2-(phenylsulfonamido)-3-benzyloxypyridine] |  |  | can be suppressed | significantly increased | decreased

From US10632084B2, “Aquaporin 4 function promotor and pharmaceutical composition for neurological disorders” (NIIGATA UNIVERSITY, priority 2016, dated 2020)
